These results are taken from patent US20040241818A1, “Assay” (priority 2000, published 2004).

Read-outs that look alike come from different tables or passages of the source.

The target in the assay is T1, truncated Itk (Homo sapiens, UniProt Q08881).
T1 construct: fused on or other part: added start methionine
T1 sequence (Q08881 171-615 limits assumed): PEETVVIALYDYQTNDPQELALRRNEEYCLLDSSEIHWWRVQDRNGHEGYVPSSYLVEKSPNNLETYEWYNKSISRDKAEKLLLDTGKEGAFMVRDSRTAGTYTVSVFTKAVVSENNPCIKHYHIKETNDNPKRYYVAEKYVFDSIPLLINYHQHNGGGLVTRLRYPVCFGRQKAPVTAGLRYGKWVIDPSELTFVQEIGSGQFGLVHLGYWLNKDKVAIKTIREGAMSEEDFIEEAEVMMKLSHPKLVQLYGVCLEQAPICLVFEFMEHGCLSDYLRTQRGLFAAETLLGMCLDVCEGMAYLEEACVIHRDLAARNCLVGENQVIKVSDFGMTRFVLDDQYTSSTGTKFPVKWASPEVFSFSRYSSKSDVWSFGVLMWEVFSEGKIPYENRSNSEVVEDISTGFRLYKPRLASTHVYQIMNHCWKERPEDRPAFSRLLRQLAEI
The assay is described as follows: Truncated Itk kinase assay (HTRF). It is filed as biochemical. The following applies: UK:ITK, 0.05 mM ATP, 15 min pre-incubation. The procedure: The 100 000 g supernatant was stored at −85° C. Stored lysates were thawed on ice, ATP and MgCl2 (0.1 mM and 10 mM) were added. Following incubation on ice the kinase was diluted in 40 mM HEPES (pH 7.4). The kinase reaction mixture contained 40 mM HEPES (pH 7.4). 10 mM MgCl2, 0.05 mM ATP, 0.0005 mM peptide (Biotin-[…]). The reaction was stopped by the addition of EDTA (25 mM). […] An increase in the level of fluorescence indicates an increase in kinase activity.
Compound Testing in Kinase Assay
Substrates (ATP, src-peptide) added
Reaction stopped with EDTA
HTRF reagents (APC, Eu labelled antibody (antiPY antibody)) added
Read signal on plate reader
(TR-FRET usually uses a lanthanide donor and a delayed reading to cut background.)

[1] abbreviates: PIC50 is -log10 IC50 in molar, read-out: Average PIC50 (converted).

Consider `CNc1ccc(-c2cc(=O)c3c(O)cc(O)cc3o2)cc1`, for which the IC50 reads like this: (read-out: Average IC50) 0.813 µM; under setting [1], 0.813 µM.
Take `O=c1c(O)c(-c2cc(O)c(O)c(O)c2)oc2cc(O)cc(O)c12`: the IC50 (read-out: Average IC50) was 1.66 µM and the IC50 under setting [1] was 1.66 µM.
